Data from patent publication US5292733A, “Cephalosporin compounds” (Lucky Limited, priority 1991, dated 1994).
Values after ≈ are worked out from the molar mass of the structure shown. Read-outs that look alike come from different tables or passages of the source.

How the values were obtained:
Test in all cases: Antibacterial activity MIC, two-fold agar dilution
Format in all cases: cell-based
[1] = tested on: Micrococcus luteus ATCC 9341; conditions: read-out: Antibacterial Activity MIC
Procedure, shortened: (§1)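 Using Muller-Hinton agar with test compound dispersed at two-fold serial dilutions, bacteria were applied as 2 μl of a 10^7 CFU/ml standard suspension. MIC was scored after 20-hour incubation at 37° C.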

[2] = tested on: Proteus vulgaris ATCC 6059; conditions: read-out: Antibacterial Activity MIC
Procedure, shortened: as §1

[3] = tested on: Acinetobacter calcoaceticus ATCC 15473; conditions: read-out: Antibacterial Activity MIC
Procedure, shortened: as §1

[4] = tested on: Shigella flexneri ATCC 11836; conditions: ATCC11836, Muller-Hinton agar, 37° C., 20 hours
Procedure, shortened: as §1

[5] = tested on: Staphylococcus aureus ATCC 10537; conditions: read-out: Antibacterial Activity MIC
Procedure, shortened: as §1

[6] = tested on: Proteus mirabilis ATCC 25933; conditions: read-out: Antibacterial Activity MIC
Procedure, shortened: as §1

[7] = tested on: Klebsiella pneumoniae ATCC 10031; conditions: read-out: Antibacterial Activity MIC
Procedure, shortened: as §1

[8] = tested on: Staphylococcus epidermidis ATCC 12228; conditions: read-out: Antibacterial Activity MIC
Procedure, shortened: as §1

[9] = tested on: Serratia marcescens ATCC 27117; conditions: read-out: Antibacterial Activity MIC
Procedure, shortened: as §1

[10] = tested on: Bacillus cereus ATCC 11778; conditions: read-out: Antibacterial Activity MIC
Procedure, shortened: as §1

[11] = tested on: Citrobacter freundii ATCC 8090; conditions: read-out: Antibacterial Activity MIC
Procedure, shortened: as §1

[12] = tested on: Morganella morganii ATCC 8076h; conditions: ATCC8076H, Muller-Hinton agar, 37° C., 20 hours
Procedure, shortened: as §1

[13] = tested on: Streptococcus faecalis ATCC 29212; conditions: Enterococcus faecalis, read-out: Antibacterial Activity MIC
Procedure, shortened: as §1

[14] = tested on: Pseudomonas aeruginosa ATCC 25619; conditions: read-out: Antibacterial Activity MIC
Procedure, shortened: as §1

[15] = tested on: Escherichia coli ATCC 25922; conditions: ATCC25922, Muller-Hinton agar, 37° C., 20 hours
Procedure, shortened: as §1

[16] = tested on: Shigella sonnei ATCC 11060; conditions: ATCC11060, Muller-Hinton agar, 37° C., 20 hours
Procedure, shortened: as §1

[17] = tested on: Pseudomonas aeruginosa ATCC 10145; conditions: read-out: Antibacterial Activity MIC
Procedure, shortened: as §1

[18] = tested on: Salmonella typhimurium ATCC 14028; conditions: Salmonella enterica, read-out: Antibacterial Activity MIC
Procedure, shortened: as §1

[19] = tested on: Enterobacter cloacae ATCC 27508; conditions: read-out: Antibacterial Activity MIC
Procedure, shortened: as §1

[20] = tested on: Bacillus megaterium ATCC 9885; conditions: Priestia megaterium, read-out: Antibacterial Activity MIC
Procedure, shortened: as §1

[21] = tested on: Staphylococcus aureus ATCC 6538p; conditions: ATCC6538P, read-out: Antibacterial Activity MIC
Procedure, shortened: as §1

[22] = tested on: Escherichia coli ATCC 10536; conditions: ATCC10536, Muller-Hinton agar, 37° C., 20 hours
Procedure, shortened: as §1

[23] = tested on: Providencia rettgeri ATCC 9250; conditions: ATCC9250, Muller-Hinton agar, 37° C., 20 hours
Procedure, shortened: as §1

[24] = tested on: Pseudomonas aeruginosa ATCC 27853; conditions: read-out: Antibacterial Activity MIC
Procedure, shortened: as §1

[25] = tested on: Enterobacter aerogenes ATCC 29751; conditions: Klebsiella aerogenes, read-out: Antibacterial Activity MIC
Procedure, shortened: as §1

[26] = ATCC9341, Micrococcus luteus ATCC 9341, Muller-Hinton agar, 37° C., 20 hours
[27] = ATCC6059, Proteus vulgaris ATCC 6059, Muller-Hinton agar, 37° C., 20 hours
[28] = ATCC15473, Acinetobacter calcoaceticus ATCC 15473, Muller-Hinton agar, 37° C., 20 hours
[29] = ATCC10537, Staphylococcus aureus ATCC 10537, Muller-Hinton agar, 37° C., 20 hours
[30] = ATCC25933, Proteus mirabilis ATCC 25933, Muller-Hinton agar, 37° C., 20 hours
[31] = ATCC10031, Klebsiella pneumoniae ATCC 10031, Muller-Hinton agar, 37° C., 20 hours
[32] = ATCC12228, Staphylococcus epidermidis ATCC 12228, Muller-Hinton agar, 37° C., 20 hours
[33] = ATCC27117, Serratia marcescens ATCC 27117, Muller-Hinton agar, 37° C., 20 hours
[34] = ATCC11778, Bacillus cereus ATCC 11778, Muller-Hinton agar, 37° C., 20 hours
[35] = ATCC8090, Citrobacter freundii ATCC 8090, Muller-Hinton agar, 37° C., 20 hours
[36] = ATCC29212, Streptococcus faecalis ATCC 29212, Muller-Hinton agar, 37° C., 20 hours
[37] = ATCC25619, Pseudomonas aeruginosa ATCC 25619, Muller-Hinton agar, 37° C., 20 hours
[38] = ATCC10145, Pseudomonas aeruginosa ATCC 10145, Muller-Hinton agar, 37° C., 20 hours
[39] = Salmonella typhimurium ATCC 14028, Muller-Hinton agar, 37° C., 20 hours
[40] = ATCC27508, Enterobacter cloacae ATCC 27508, Muller-Hinton agar, 37° C., 20 hours
[41] = ATCC9885, Bacillus megaterium ATCC 9885, Muller-Hinton agar, 37° C., 20 hours
[42] = Staphylococcus aureus ATCC 6538p, Muller-Hinton agar, 37° C., 20 hours
[43] = ATCC27853, Pseudomonas aeruginosa ATCC 27853, Muller-Hinton agar, 37° C., 20 hours
[44] = ATCC29751, Enterobacter aerogenes ATCC 29751, Muller-Hinton agar, 37° C., 20 hours

SMILES | MIC [1, 26] [µg/mL] | MIC [2, 27] [µg/mL] | MIC [3, 28] [µg/mL] | MIC [4] [µg/mL] | MIC [5, 29] [µg/mL] | MIC [6, 30] [µg/mL] | MIC [7, 31] [µg/mL] | MIC [8, 32] [µg/mL] | MIC [9, 33] [µg/mL] | MIC [10, 34] [µg/mL] | MIC [11, 35] [µg/mL] | MIC [12] [µg/mL] | MIC [13, 36] [µg/mL] | MIC [14, 37] [µg/mL] | MIC [15] [µg/mL] | MIC [16] [µg/mL] | MIC [17, 38] [µg/mL] | MIC [18, 39] [µg/mL] | MIC [22] [µg/mL] | MIC [23] [µg/mL] | also measured
C[n+]1c(N)nc(N)nc1SCC1=C(C(=O)[O-])N2C(=O)C(NC(=O)/C(=N\OC(C)(C)C(=O)O)c3csc(N)n3)[C@H]2SC1 (stereo partly drawn) [Compound I-23, 7-[(Z)-2-(2-aminothiazol-4-yl)-2-(2-carboxyprop-2-oxyimino)acetamido]-3-(4,6-diamino-1-methyl-1,3,5-triazinium-2-yl)thiomethyl-3-cephem-4-carboxylate] | 1 (≈ 1.6 µM) | 0.063 (≈ 0.101 µM) | 4 (≈ 6.4 µM) | 0.063 (≈ 0.101 µM) | 2 (≈ 3.2 µM) | 0.063 (≈ 0.101 µM) | 0.063 (≈ 0.101 µM) | 2 (≈ 3.2 µM) | 0.13 (≈ 0.208 µM) | 128 (≈ 205 µM) | 0.13 (≈ 0.208 µM) | ≤ 0.008 | > 128 | 1 (≈ 1.6 µM) | 0.063 (≈ 0.101 µM) | 0.063 (≈ 0.101 µM) | 2 (≈ 3.2 µM) | 0.13 (≈ 0.208 µM) | 0.063 (≈ 0.101 µM) | ≤ 0.008 | MIC [19, 40]: 0.031 µg/mL (≈ 0.0496 µM); MIC [20, 41]: 0.5 µg/mL (≈ 0.8 µM); MIC [21, 42]: 8 µg/mL (≈ 12.8 µM); MIC [24, 43]: 1 µg/mL (≈ 1.6 µM); MIC [25, 44]: 2 µg/mL (≈ 3.2 µM)
C[n+]1c(N)cc(SCC2=C(C(=O)[O-])N3C(=O)[C@@H](NC(=O)/C(=N\OCC(=O)O)c4csc(N)n4)[C@H]3SC2)nc1N [Compound I-17, (6R,7R)-7-[(Z)-2-(2-aminothiazol-4-yl)-2-(carboxymethoxyimino)acetamido]-3-(2,6-diamino-1-methylpyrimidinium-4-yl)thiomethyl-3-cephem-4-carboxylate] | 1 (≈ 1.68 µM) | 0.063 (≈ 0.106 µM) | 16 (≈ 26.9 µM) | 0.016 (≈ 0.0269 µM) | 4 (≈ 6.72 µM) | 0.031 (≈ 0.052 µM) | 0.031 (≈ 0.052 µM) | 2 (≈ 3.36 µM) | 0.063 (≈ 0.106 µM) | > 128 | 0.031 (≈ 0.052 µM) | ≤ 0.008 | > 128 | 1 (≈ 1.68 µM) | 0.016 (≈ 0.0269 µM) | 0.031 (≈ 0.052 µM) | 4 (≈ 6.72 µM) | 0.063 (≈ 0.106 µM) | 0.031 (≈ 0.052 µM) | ≤ 0.008 | MIC [19, 40]: 0.016 µg/mL (≈ 0.0269 µM); MIC [20, 41]: 0.5 µg/mL (≈ 0.839 µM); MIC [21, 42]: 8 µg/mL (≈ 13.4 µM); MIC [24, 43]: 2 µg/mL (≈ 3.36 µM); MIC [25, 44]: 1 µg/mL (≈ 1.68 µM)
CC(C)(O/N=C(\C(=O)N[C@@H]1C(=O)N2C(C(=O)[O-])=C(C[n+]3ccccc3)CS[C@H]12)c1csc(N)n1)C(=O)O [Ceftazidime, reference compound] |  |  |  | 0.063 (≈ 0.115 µM) |  |  |  |  |  |  |  | 0.016 (≈ 0.0293 µM) |  |  | 0.13 (≈ 0.238 µM) | 0.063 (≈ 0.115 µM) |  |  | 0.13 (≈ 0.238 µM) | ≤ 0.008 | MIC ([1]; Micrococcus luteus, ATCC9341, 20 h): 1 µg/mL (≈ 1.83 µM); MIC ([2]; Proteus vulgaris, ATCC6059, 20 h): 0.063 µg/mL (≈ 0.115 µM); MIC ([3]; Acinetobacter calcoaceticus, ATCC15473, 20 h): 4 µg/mL (≈ 7.32 µM); MIC ([5]; Staphylococcus aureus, ATCC10537, 20 h): 8 µg/mL (≈ 14.6 µM); MIC ([6]; Proteus mirabilis, ATCC25933, 20 h): 0.063 µg/mL (≈ 0.115 µM); MIC ([7]; Klebsiella pneumoniae, ATCC10031, 20 h): 0.13 µg/mL (≈ 0.238 µM); MIC ([8]; Staphylococcus epidermidis, ATCC12228, 20 h): 8 µg/mL (≈ 14.6 µM); MIC ([9]; Serratia marcescens, ATCC27117, 20 h): 0.13 µg/mL (≈ 0.238 µM); MIC ([10]; Bacillus cereus, ATCC11778, 20 h): 128 µg/mL (≈ 234 µM); MIC ([11]; Citrobacter freundii, ATCC8090, 20 h): 1 µg/mL (≈ 1.83 µM); MIC ([13]; ATCC29212, 20 h): > 128 µg/mL; MIC ([14]; Pseudomonas aeruginosa, ATCC25619, 20 h): 1 µg/mL (≈ 1.83 µM); MIC ([17]; Pseudomonas aeruginosa, ATCC10145, 20 h): 2 µg/mL (≈ 3.66 µM); MIC ([18]; 20 h): 0.25 µg/mL (≈ 0.457 µM); MIC ([19]; Enterobacter cloacae, ATCC27508, 20 h): 0.063 µg/mL (≈ 0.115 µM); MIC ([20]; ATCC9885, 20 h): 0.25 µg/mL (≈ 0.457 µM); MIC ([21]; Staphylococcus aureus, 20 h): 16 µg/mL (≈ 29.3 µM); MIC ([24]; Pseudomonas aeruginosa, ATCC27853, 20 h): 1 µg/mL (≈ 1.83 µM); MIC ([25]; ATCC29751, 20 h): 4 µg/mL (≈ 7.32 µM)
